Source: patent US20050090529A1, “3,5 Disubstituted indazole compounds with nitrogen-bearing 5-membered heterocycles, pharmaceutical compositions, and methods for mediating or inhibiting cell proliferation” (PFIZER INC, priority 2003, published 2005)

Test system: Cyclin-dependent kinase
Assay: Cyclin-dependent kinase inhibition, % inhibition at 10 nM (library Examples 99-270)
Type: biochemical
Settings: 10 nM compound
Procedure, shortened: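 Enzyme starts the reaction at 30° C, which runs 20 min with 25 μM [³²P/³³P]ATP and protein substrate (pH 7.4, 10 mM MgCl2, 2% DMSO). After EDTA quench, membrane-bound labelled substrate is read by phosphorimaging following acid washes.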

SMILES	% Inhib @ 10 nM
CCNCc1cncc(-c2ccc3[nH]nc(-c4ncc(C(=O)N5CCC(c6c[nH]c7ccccc67)CC5)[nH]4)c3c2)c1C [Example 201, ethyl({5-(3-(5-{[4-(1H-indol-3-yl)pipendin-1-yl]carbonyl}-1H-imidazol-2-yl)-1H-indazol-5-yl]-4-methylpyridin-3-yl}methyl)amine]	67%
CCNCc1cncc(-c2ccc3[nH]nc(-c4ncc(C(=O)NC5(CO)CCCC5)[nH]4)c3c2)c1C [Example 139, 2-(5-{5-[(ethylamino)methyl]-4-methylpyridin-3-yl}-1H-indazol-3-yl)-N-[1-(hydroxymethyl)cyclopentyl]-1H-imidazole-5-carboxamide]	64%
CCNCc1cncc(-c2ccc3[nH]nc(-c4ncc(C(=O)NCc5ccc(OC(F)F)cc5)[nH]4)c3c2)c1C [Example 248, N-[4-(difluoromethoxy)benzyl]-2-(5-{5-[(ethylamino)methyl]-4-methylpyridin-3-yl}-1H-indazol-3-yl)-1H-imidazole-5-carboxamide]	67%
CCNCc1cncc(-c2ccc3[nH]nc(-c4ncc(C(=O)N5CCC(S(C)(=O)=O)C5)[nH]4)c3c2)c1C (centres unmarked) [Example 240]	71%
CCNCc1cncc(-c2ccc3[nH]nc(-c4ncc(C(=O)N5CCN(c6ccccn6)CC5)[nH]4)c3c2)c1C [Example 115, ethyl{[4-methyl-5-(3-{5-[(4-pyridin-2-piperazin-1-yl)carbonyl]-1H-imidazol-yl}-1H-indazol-5-yl)pyridin-3-yl]methyl}amine]	72%
CCNCc1cncc(-c2ccc3[nH]nc(-c4ncc(C(=O)N5CCN(CCOC)CC5)[nH]4)c3c2)c1C [Example 169, ethyl({5-[3-(5-{[4-(2-methoxyethyl)piperazin-1-yl]carbonyl}-1H-imidazol-2-yl)-1H-indazol-5-yl]-4-methylpyridin-3-yl}methyl)amine]	37%
CCNCc1cncc(-c2ccc3[nH]nc(-c4ncc(C(=O)N5CCc6cc(OC)c(OC)cc6C5)[nH]4)c3c2)c1C [Example 121, {[5-(3-{5-[(6,7-dimethoxy-3,4-dihydroisoquinolin-2(1H)-yl)carbonyl}-1H-imidazol-2-yl}-1H-indazol-5-yl)-4-methylpyridin-3-yl]methyl)ethylamine]	69%
CCNCc1cncc(-c2ccc3[nH]nc(-c4ncc(C(=O)N5CCC(Cc6ccc(C(N)=O)cc6)CC5)[nH]4)c3c2)c1C [Example 263, 4-[(1-{[2-(5-{5-[(ethylamino)methyl]-4-methylpyridin-3-yl}-1H-indazol-3-y)-1H-imidazol-5-yl]carbonyl}piperidin-4-yl)methyl]benzamide]	69%
CCNCc1cncc(-c2ccc3[nH]nc(-c4ncc(C(=O)NCc5ccc(C(=O)OC)cc5)[nH]4)c3c2)c1C [Example 194, methyl-4-[({[2-(5-{5-[(ethylamino)methyl]-4-methylpyridin-3-yl}-1H-indazol-3-yl)-1H-imidazol-5-yl]carbonyl}amino)methyl]benzoate]	65%
CCNCc1cncc(-c2ccc3[nH]nc(-c4ncc(C(=O)NCC56C=CC(O5)[C@H]5C(=O)N(C)C(=O)[C@H]56)[nH]4)c3c2)c1C (stereo partly drawn) [Example 208, 2-(5-{5-[(ethylamino)methyl]-4-methylpyridin-3-yl}-1H-indazol-3-yl)-N-{[(3aR,7aS)-2-methyl-13-dioxo-1,2,3,3a,7,7a-hexahydro-4H-4,7-epoxyisoindol-4-yl]methyl}-1H-imidazole-5-carboxamide]	55%
CCNCc1cncc(-c2ccc3[nH]nc(-c4ncc(C(=O)N5CCCCC5Cc5ccccc5)[nH]4)c3c2)c1C (centres unmarked) [Example 233, {[5-(3-{5-[(2-benzylpipendin-1-yl)carbonyl]-1H-imidazal-2-yl)-1H-indazol-5-yl)-4-methylpyridin-3-yl]methyl}ethylamine]	32%
CCNCc1cncc(-c2ccc3[nH]nc(-c4ncc(C(=O)N5CCN(c6ccncc6)CC5)[nH]4)c3c2)c1C [Example 144, ethyl{[4-methyl-5-(3-{5-[(4-pyridin-4-ylpiperazin-1-yl)carbonyl]-1H-imidazol-2-yl}-1H-indazol-5-yl)pyridin-3-yl]methyl}amine]	30%
CCNCc1cncc(-c2ccc3[nH]nc(-c4ncc(C(=O)N5CCC(Oc6ccccc6)CC5)[nH]4)c3c2)c1C [Example 196, ethyl{[4-methyl-5-(3-{5-[(4-phenoxypiperidin-1-yl)carbonyl]-1H-imidazol-2-yl]-1H-indazol-5-yl)pyridin-3-yl]methyl}amine]	71%
CCNCc1cncc(-c2ccc3[nH]nc(-c4ncc(C(=O)N(CC#N)Cc5ccccc5)[nH]4)c3c2)c1C [Example 213, N-benzyl-N-(cyanomethyl)-2-(5-{5-[(ethylamino)methyl]-4-methylpyridin-3-yl}-1H-indazol-3-yl)-1H-imidazale-5-carboxamide]	68%
CCNCc1cncc(-c2ccc3[nH]nc(-c4ncc(C(=O)NC[C@]5(O)CC[C@H](c6ccccc6)CC5)[nH]4)c3c2)c1C [Example 204, 2-(5-{5-[(ethylamino)methyl]-4-methylpyridin-3-yl}-1H-indazol-3-yl)-N-[(trans-1-hydroxy-4-phenylcyclohexyl)methyl]-1H-imidazole-5-carboxamide]	77%
CCNCc1cncc(-c2ccc3[nH]nc(-c4ncc(C(=O)N5CCC6(CC5)CNC(=O)C6)[nH]4)c3c2)c1C [Example 205, 8-{[2-(5-{5-[(ethylamino)methyl]-4-methylpyridin-3-yl}-1H-indazol-3-yl)-1H-imidazol-5-yl]carbanyl}-2,8-diazaspiro[4.5]decan-3-one]	40%
CCNCc1cncc(-c2ccc3[nH]nc(-c4ncc(C(=O)NCC5(N(C)C)CCOCC5)[nH]4)c3c2)c1C [Example 210]	35%
CCCCN(CCC#N)C(=O)c1cnc(-c2n[nH]c3ccc(-c4cncc(CNCC)c4C)cc23)[nH]1 [Example 164, N-butyl-N-(2-cyanoethyl)-2-(5-{5-[(ethylamino)methyl]4-methylpyridin-3-yl}-1H-indazol-3-yl)-1H-imidaole-5-carboxamide]	69%

Continued, values first:

% Inhib @ 10 nM	SMILES
63%	CCNCc1cncc(-c2ccc3[nH]nc(-c4ncc(C(=O)NCC(=O)OCc5ccccc5)[nH]4)c3c2)c1C [Example 200, benzyl N-{[2-(5-{5-[(ethylamino)methyl]-4-methylpyridin-3-yl}-1H-indazol-3-yl)-1H-imidazol-5-yl]carbonyl}glycinate]
13%	CCNCc1cncc(-c2ccc3[nH]nc(-c4ncc(C(=O)NCCC56CCCN5CCC6)[nH]4)c3c2)c1C [Example 216, 2-(5-{5-[(ethylamino)methyl]-4-methylpyridin-3-yl}-1H-indazol-3-yl)-N-[2-(tetrahydro-1H-pyrrolizin-7a(5H)-yl)ethyl]-1H-imidazole-5-carboxamide]
39%	CCNCc1cncc(-c2ccc3[nH]nc(-c4ncc(C(=O)NCCCn5ccnc5)[nH]4)c3c2)c1C [Example 99, 2-(5-{5-[(ethylamino)methy]-4-methylpyridin-3-yl}-1H-indazol-3-yl)-N-[3-(1H-imidazol-1-yL)propyl]-1H-imidazole-5-carboxamide]
41%	CCNCc1cncc(-c2ccc3[nH]nc(-c4ncc(C(=O)NCc5ccc(C(F)(F)F)nc5)[nH]4)c3c2)c1C [Example 188, 2-(5-{5-[(ethylamino)methyl]-4-methylpyridin-3-yl}-1H-indazol-3-yl)-N-{(6-(trifluoromethyl)pyridin-3-yl]methyl}-1H-imidazole-5-carboxamide]
48%	CCNCc1cncc(-c2ccc3[nH]nc(-c4ncc(C(=O)NCCc5c[nH]cn5)[nH]4)c3c2)c1C [Example 161, 2-(5-{5-[(ethylamino)methyl]-4-methylpyridin-3yl-1H-indazol-3yl)-N-2-(1H-imidazol-4-yl)ethyl]-1H-imidazole-5-carboxamide]
67%	CCNCc1cncc(-c2ccc3[nH]nc(-c4ncc(C(=O)NC)[nH]4)c3c2)c1C [Example 151, 2-(5-{5-[(ethylamino)methyl]-4-methylpyridin-3-yl}-1H-indazol-3-yl)-N-methyl-1H-imidazole-5-carboxamide]
73%	CCNCc1cncc(-c2ccc3[nH]nc(-c4ncc(C(=O)N(C)CC)[nH]4)c3c2)c1C [Example 178, N-ethyl-2-(5-{5-[(ethylamino)methyl]-4-methylpyridin-3-yl}-1H-indazol-3-yl)-N-methyl-1H-imidazole-5-carboxamrde]
69%	CCNCc1cncc(-c2ccc3[nH]nc(-c4ncc(C(=O)NCC(O)COc5ccccc5)[nH]4)c3c2)c1C (centres unmarked) [Example 249, 2-(5-{5-[(ethylamino)methyl]-4-methylpyridin-3-yl}-1H-indazol-3-yl)-N-(2-hydroxy-3-phenoxypropyl)-1H-imidazole-5-carboxamide]
72%	CCNCc1cncc(-c2ccc3[nH]nc(-c4ncc(C(=O)NCC(F)(F)F)[nH]4)c3c2)c1C [Example 136, 2-(5-{5-[(ethylamino)methyl]-4-methylpyridin-3-yl}-1H-indazol-3-yl)-N-(2,2,2-trifluoroethyl)-1H-imidazole-5-carboxamide]
80%	CCNCc1cncc(-c2ccc3[nH]nc(-c4ncc(C(=O)N(CC)CC)[nH]4)c3c2)c1C [Example 132, N,N-diethyl-2-(5-{5-[(ethylamino)methyl]-4-methylpyridin-3-yl}-1H-indazol-3-yl)-1H-imidazxole-5-carboxamide]
27%	CCNCc1cncc(-c2ccc3[nH]nc(-c4ncc(C(=O)NCCn5cc(C(=O)NC(C)(C)C)nn5)[nH]4)c3c2)c1C [Example 251]
